Assays:
Assay type in all cases: functional
CCRF-CEM = experiment: Growth inhibition of human CCRF-CEM cells by sulforhodamine B assay
U-251 [1] = experiment: Growth inhibition of human U251 cells assessed as cell growth at 10^-6 M by sulforhodamine B assay; details: read-out: Activity
PC-3 = experiment: Growth inhibition of human PC3 cells assessed as cell growth at 10^-4 M by sulforhodamine B assay; details: read-out: Activity
HCT-116 [2] = experiment: Growth inhibition of human HCT116 cells by sulforhodamine B assay
SK-MEL-2 = experiment: Growth inhibition of human SK-MEL-2 cells assessed as cell growth at 10^-8 M by sulforhodamine B assay; details: read-out: Activity
MDA-MB-435 = experiment: Growth inhibition of human MDA-MB-435 cells assessed as cell growth at 10^-7 M by sulforhodamine B assay; details: read-out: Activity
[3] = Growth inhibition of human NCI-ADR-RES cells assessed as cell growth at 10^-8 M by sulforhodamine B assay; details: read-out: Activity
HOP-92 = experiment: Growth inhibition of human HOP92 cells by sulforhodamine B assay
MCF7 [4] = experiment: Growth inhibition of human MCF7 cells assessed as cell growth at 10^-8 M by sulforhodamine B assay; details: read-out: Activity
NCI-H226 = experiment: Growth inhibition of human NCI-H226 cells assessed as cell growth at 10^-4 M by sulforhodamine B assay; details: read-out: Activity
T47D = experiment: Growth inhibition of human T47D cells assessed as cell growth at 10^-8 M by sulforhodamine B assay; details: read-out: Activity
NCI-H23 [5] = experiment: Growth inhibition of human NCI-H23 cells assessed as cell growth at 10^-8 M by sulforhodamine B assay; details: read-out: Activity
SF-268 [6] = experiment: Growth inhibition of human SF268 cells by sulforhodamine B assay
NCI-H23 [7] = experiment: Growth inhibition of human NCI-H23 cells assessed as cell growth at 10^-6 M by sulforhodamine B assay; details: read-out: Activity
[8] = Growth inhibition of human Hs 578T cells by sulforhodamine B assay
BT-549 = experiment: Growth inhibition of human BT549 cells assessed as cell growth at 10^-6 M by sulforhodamine B assay; details: read-out: Activity
UACC-257 = experiment: Growth inhibition of human UACC257 cells assessed as cell growth at 10^-6 M by sulforhodamine B assay; details: read-out: Activity
SK-MEL-28 [9] = experiment: Growth inhibition of human SK-MEL-28 cells by sulforhodamine B assay
SN12C = experiment: Growth inhibition of human SN12C cells assessed as cell growth at 10^-7 M by sulforhodamine B assay; details: read-out: Activity
UACC-62 = experiment: Growth inhibition of human UACC62 cells assessed as cell growth at 10^-7 M by sulforhodamine B assay; details: read-out: Activity
DU-145 [10] = experiment: Growth inhibition of human DU145 cells assessed as cell growth at 10^-4 M by sulforhodamine B assay; details: read-out: Activity
SF-268 [11] = experiment: Growth inhibition of human SF268 cells assessed as cell growth at 10^-7 M by sulforhodamine B assay; details: read-out: Activity
SK-MEL-5 = experiment: Growth inhibition of human SK-MEL-5 cells assessed as cell growth at 10^-8 M by sulforhodamine B assay; details: read-out: Activity
A549 = experiment: Growth inhibition of human A549/ATCC cells assessed as cell growth at 10^-7 M by sulforhodamine B assay; details: read-out: Activity
NCI-H460 = experiment: Growth inhibition of human NCI-H460 cells assessed as cell growth at 10^-6 M by sulforhodamine B assay; details: read-out: Activity
HL-60(TB) [12] = experiment: Growth inhibition of human HL-60(TB) cells assessed as cell growth at 10^-7 M by sulforhodamine B assay; details: read-out: Activity
SNB-75 [13] = experiment: Growth inhibition of human SNB75 cells by sulforhodamine B assay
HL-60(TB) [14] = experiment: Growth inhibition of human HL-60(TB) cells assessed as cell growth at 10^-4 M by sulforhodamine B assay; details: read-out: Activity
U-251 [15] = experiment: Growth inhibition of human U251 cells assessed as cell growth at 10^-7 M by sulforhodamine B assay; details: read-out: Activity
SNB-75 [16] = experiment: Growth inhibition of human SNB75 cells assessed as cell growth at 10^-7 M by sulforhodamine B assay; details: read-out: Activity
DU-145 [17] = experiment: Growth inhibition of human DU145 cells by sulforhodamine B assay
NCI-H522 = experiment: Growth inhibition of human NCI-H522 cells by sulforhodamine B assay
SK-MEL-28 [18] = experiment: Growth inhibition of human SK-MEL-28 cells assessed as cell growth at 10^-8 M by sulforhodamine B assay; details: read-out: Activity
OVCAR-8 = experiment: Growth inhibition of human OVCAR8 cells assessed as cell growth at 10^-4 M by sulforhodamine B assay; details: read-out: Activity
HCT-116 [19] = experiment: Growth inhibition of human HCT116 cells assessed as cell growth at 10^-7 M by sulforhodamine B assay; details: read-out: Activity
SR = experiment: Growth inhibition of human SR cells assessed as cell growth at 10^-4 M by sulforhodamine B assay; details: read-out: Activity
HCT-15 = experiment: Growth inhibition of human HCT15 cells assessed as cell growth at 10^-4 M by sulforhodamine B assay; details: read-out: Activity
MCF7 [20] = experiment: Growth inhibition of human MCF7 cells assessed as cell growth at 10^-6 M by sulforhodamine B assay; details: read-out: Activity
CAKI-1 = experiment: Growth inhibition of human CAKI-1 cells assessed as cell growth at 10^-6 M by sulforhodamine B assay; details: read-out: Activity
[21] = read-out: LC50 (the source's name)
[22] = read-out: pLC50 (the source's name) (converted)

With CC1(C)C[C@@H](O)[C@]2(C(=O)O)CC[C@]3(C)C(=CC[C@@H]4[C@@]5(C)C/C(=C\C=C\c6ccccc6)C(=O)C(C)(C)[C@@H]5CC[C@]43C)[C@@H]2C1 the GI50 (CCRF-CEM; read-out: GI50) was 2.79 µM, the CC50 (CCRF-CEM; [21]) was greater than 100 µM and the TGI (CCRF-CEM; read-out: TGI) was 8.51 µM. The GI50 (CCRF-CEM; read-out: pGI50 (converted)) was 2.82 µM, the CC50 (CCRF-CEM; [22]) was greater than 100 µM and the TGI (CCRF-CEM; read-out: pTGI (converted)) was 8.51 µM. The growth at 1 µM (U-251 [1]) was 85%, the growth at 100 µM (PC-3) was -67% and the GI50 (HCT-116 [2]; read-out: GI50) was 2.89 µM. For the same compound, the LC50 (HCT-116 [2]; read-out: LC50) was 82.7 µM, the TGI (HCT-116 [2]; read-out: TGI) was 11.2 µM and the GI50 (HCT-116 [2]; read-out: pGI50 (converted)) was 2.88 µM. For the same compound, the LC50 (HCT-116 [2]; read-out: pLC50 (converted)) was 83.2 µM, the TGI (HCT-116 [2]; read-out: pTGI (converted)) was 11.2 µM and the growth at 0.01 µM (SK-MEL-2) was 86%. The growth at 0.1 µM (MDA-MB-435) was 96%, the growth at 0.01 µM [3] was 107% and the GI50 (HOP-92; read-out: GI50) was 1.92 µM. The CC50 (HOP-92; [21]) was 36.6 µM, the TGI (HOP-92; read-out: TGI) was 6.67 µM and the GI50 (HOP-92; read-out: pGI50 (converted)) was 1.91 µM. For the same compound, the CC50 (HOP-92; [22]) was 36.3 µM, the TGI (HOP-92; read-out: pTGI (converted)) was 6.61 µM and the growth at 0.01 µM (MCF7 [4]) was 95%. For the same compound, the growth at 100 µM (NCI-H226) was -70%, the growth at 0.01 µM (T47D) was 101% and the growth at 0.01 µM (NCI-H23 [5]) was 95%. It also gave a GI50 (SF-268 [6]; read-out: GI50) of 3.36 µM, an LC50 (SF-268 [6]; read-out: LC50) of 45.5 µM and a TGI (SF-268 [6]; read-out: TGI) of 14 µM. The GI50 (SF-268 [6]; read-out: pGI50 (converted)) was 3.39 µM, the LC50 (SF-268 [6]; read-out: pLC50 (converted)) was 45.7 µM and the TGI (SF-268 [6]; read-out: pTGI (converted)) was 14.1 µM. It also gave a growth at 1 µM (NCI-H23 [7]) of 95%, a GI50 ([8]; read-out: GI50) of 3.29 µM and a CC50 [8, 21] greater than 100 µM. For the same compound, the TGI ([8]; read-out: TGI) was 20.6 µM, the GI50 ([8]; read-out: pGI50 (converted)) was 3.31 µM and the CC50 [8, 22] was greater than 100 µM. The TGI ([8]; read-out: pTGI (converted)) was 20.4 µM, the growth at 1 µM (BT-549) was 100% and the growth at 1 µM (UACC-257) was 89%. It also gave a GI50 (SK-MEL-28 [9]; read-out: GI50) of 4.37 µM, a CC50 (SK-MEL-28 [9]; [21]) of 51.8 µM and a TGI (SK-MEL-28 [9]; read-out: TGI) of 17 µM. The GI50 (SK-MEL-28 [9]; read-out: pGI50 (converted)) was 4.37 µM, the CC50 (SK-MEL-28 [9]; [22]) was 51.3 µM and the TGI (SK-MEL-28 [9]; read-out: pTGI (converted)) was 17 µM. For the same compound, the growth at 0.1 µM (SN12C) was 98%, the growth at 0.1 µM (UACC-62) was 93% and the growth at 100 µM (DU-145 [10]) was -92%. For the same compound, the growth at 0.1 µM (SF-268 [11]) was 91%, the growth at 0.01 µM (SK-MEL-5) was 99% and the growth at 0.1 µM (A549) was 95%. The growth at 1 µM (NCI-H460) was 97%, the growth at 0.1 µM (HL-60(TB) [12]) was 108% and the GI50 (SNB-75 [13]; read-out: GI50) was 4.27 µM. It also gave a CC50 (SNB-75 [13]; [21]) of 63.7 µM, a TGI (SNB-75 [13]; read-out: TGI) of 20.9 µM and a GI50 (SNB-75 [13]; read-out: pGI50 (converted)) of 4.27 µM. For the same compound, the CC50 (SNB-75 [13]; [22]) was 63.1 µM, the TGI (SNB-75 [13]; read-out: pTGI (converted)) was 20.9 µM and the growth at 100 µM (HL-60(TB) [14]) was -40%. It also gave a growth at 0.1 µM (U-251 [15]) of 95%, a growth at 0.1 µM (SNB-75 [16]) of 89% and a GI50 (DU-145 [17]; read-out: GI50) of 4.23 µM. The CC50 (DU-145 [17]; [21]) was 41.7 µM, the TGI (DU-145 [17]; read-out: TGI) was 14.9 µM and the GI50 (DU-145 [17]; read-out: pGI50 (converted)) was 4.27 µM. It also gave a CC50 (DU-145 [17]; [22]) of 41.7 µM, a TGI (DU-145 [17]; read-out: pTGI (converted)) of 14.8 µM and a GI50 (NCI-H522; read-out: GI50) of 2.46 µM. It also gave a CC50 (NCI-H522; [21]) of 29.4 µM, a TGI (NCI-H522; read-out: TGI) of 6.9 µM and a GI50 (NCI-H522; read-out: pGI50 (converted)) of 2.45 µM. It also gave a CC50 (NCI-H522; [22]) of 29.5 µM, a TGI (NCI-H522; read-out: pTGI (converted)) of 6.92 µM and a growth at 0.01 µM (SK-MEL-28 [18]) of 99%. The growth at 100 µM (OVCAR-8) was -67%, the growth at 0.1 µM (HCT-116 [19]) was 99% and the growth at 100 µM (SR) was -24%. It also gave a growth at 100 µM (HCT-15) of -80%, a growth at 1 µM (MCF7 [20]) of 95% and a growth at 1 µM (CAKI-1) of 92%.

Reference: ChEMBL document CHEMBL2413072, “Synthesis and in vitro anticancer studies of novel C-2 arylidene congeners of lantadenes” (2013)
